Among the data in ChEMBL document CHEMBL1136307, “Novel chromene derivatives as TNF-alpha inhibitors” (Bioorg Med Chem Lett, 2003) are IC50 values, retold here.

Each structure is given as a SMILES string.

The test is described as follows: Inhibitory activity against TNF-alpha production in human peripheral blood mononuclear cells(PBMC) using an ELISA assay. It counts as functional. (ELISA stands for enzyme-linked immunosorbent assay.)
For `COc1ccc2c(c1)OC(c1cc(OC)c(OC)c(OC)c1)C(C(C)=O)=C2` (centres undefined), half-maximal inhibition (IC50) required 0.1 µM. `COc1ccc2c(c1)OC(c1cc(OC)c(OC)c(OC)c1)C(C=O)=C2` (centres undefined): the midpoint of inhibition, the IC50, lay at 0.6 µM. Take `COc1ccc2c(c1)OC(c1cc(OC)c(OC)c(OC)c1)C(C(=O)NC(C)(C)C)=C2` (centres undefined): the half-inhibitory concentration (IC50) (usually the midpoint of a concentration-inhibition curve) was > 50 µM. As for `CCCC(=O)C1=Cc2ccc(OC)cc2OC1c1cc(OC)c(OC)c(OC)c1` (centres undefined), the figure is 4.7 µM; as for `COc1ccc2c(c1)OC(c1cc(OC)c(OC)c(OC)c1)C(C(=O)OC(C)C)=C2` (centres undefined), 12 µM; as for `COc1ccc2c(c1)OC(c1cc(OC)c(OC)c(OC)c1)C(C#N)=C2` (centres undefined), 0.6 µM. The result for `COc1ccc2c(c1)OC(c1cc(OC)c(OC)c(OC)c1)C(/C=N/O)=C2` (centres undefined) reads 4.1 µM.

Consider `COc1ccc2c(c1)OC(c1cc(OC)c(OC)c(OC)c1)C(C(=O)OC(C)(C)C)=C2` (centres undefined), for which the IC50 was 13 µM. The result for `CNC(=O)C1=Cc2ccc(OC)cc2OC1c1cc(OC)c(OC)c(OC)c1` (centres undefined) reads 8.1 µM. As for `COc1ccc2c(c1)OC(c1cc(OC)c(OC)c(OC)c1)C(C(N)=O)=C2` (centres undefined), the figure is 0.6 µM. As for `CCCCNC(=O)C1=Cc2ccc(OC)cc2OC1c1cc(OC)c(OC)c(OC)c1` (centres undefined), the figure is 31.3 µM; as for `COc1ccc2c(c1)OC(c1cc(OC)c(OC)c(OC)c1)C(C(=O)Nc1ccccc1)=C2` (centres undefined), > 50 µM. `CCOC(=O)C1=Cc2ccc(OC)cc2OC1c1cc(OC)c(OC)c(OC)c1` (centres undefined) registered an IC50 of 7 µM. As for `CCNC(=O)C1=Cc2ccc(OC)cc2OC1c1cc(OC)c(OC)c(OC)c1` (centres undefined), the figure is 17.9 µM. As for `COc1ccc2c(c1)OC(c1cc(OC)c(OC)c(OC)c1)C(C(=O)O)=C2` (centres undefined), the figure is > 50 µM; as for `COc1ccc2c(c1)OC(c1cc(OC)c(OC)c(OC)c1)C(C(=O)OCCc1ccccc1)=C2` (centres undefined), > 50 µM.

`COc1ccc2c(c1)OC(c1cc(OC)c(OC)c(OC)c1)C(CO)=C2` (centres undefined) displayed an IC50 of 2.4 µM. That is a single-digit micromolar value. The result for `COc1ccc2c(c1)OC(c1cc(OC)c(OC)c(OC)c1)C=C2` (centres undefined) reads 11.6 µM; that for `COc1ccc2c(c1)OC(c1cc(OC)c(OC)c(OC)c1)C(C(=O)NC(C)C)=C2` (centres undefined), 41.6 µM; that for `COc1ccc2c(c1)OC(c1cc(OC)c(OC)c(OC)c1)C(C(=O)N1CCCCC1)=C2` (centres undefined), 48 µM. The result for `COc1ccc2c(c1)OC(c1cc(OC)c(OC)c(OC)c1)C(C(=O)N(C)C)=C2` (centres undefined) reads > 50 µM; that for `COC(=O)C1=Cc2ccc(OC)cc2OC1c1cc(OC)c(OC)c(OC)c1` (centres undefined), 2 µM.

Turning to `CCOCC1=Cc2ccc(OC)cc2OC1c1cc(OC)c(OC)c(OC)c1` (centres undefined), the IC50 was 1.1 µM. As for `COc1ccc2c(c1)OC(c1cc(OC)c(OC)c(OC)c1)C(C(=O)N(C)OC)=C2` (centres undefined), the figure is 31.1 µM.
